# In patent US11802111B2, “Cyclobutyl amide monoacylglycerol lipase modulators” (Janssen Pharmaceutica NV, priority 2020, dated 2023):
# Target: human MGL from HeLa cells (Homo sapiens (Human), UniProt Q99685)
# Test: MGL in vitro activity assay ([glycerol-1,3-3H]-oleoyl glycerol hydrolysis, activated carbon filtration)
# Format: biochemical
# Details: 300 nM [Glycerol-1,3-3H]-oleoyl glycerol, one hour
# How it was run: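 Activity measured as tritium in the flow-through after activated carbon filtration of a 1 h reaction containing 300 nM 3H-oleoyl glycerol, compound and HeLa-derived human MGL. Compounds screened at 10 μM; IC50 series start at an empirically chosen highest concentration.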
# human MGL from HeLa cells, sequence (Q99685 whole entry): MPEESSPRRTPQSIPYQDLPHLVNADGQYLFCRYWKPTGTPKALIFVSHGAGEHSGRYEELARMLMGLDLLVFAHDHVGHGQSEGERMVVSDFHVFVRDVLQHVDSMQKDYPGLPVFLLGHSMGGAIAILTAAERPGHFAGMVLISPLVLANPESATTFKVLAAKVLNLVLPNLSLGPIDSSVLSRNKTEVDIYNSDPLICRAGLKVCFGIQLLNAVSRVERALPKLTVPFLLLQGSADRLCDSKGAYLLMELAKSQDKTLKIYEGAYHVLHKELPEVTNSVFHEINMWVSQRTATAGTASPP
row,IC50,Structure (SMILES)
1,18 nM,"Cn1ccc2ccc(OC3CCC4(CC3)CN(C(=O)[C@H]3C[C@@](C)(O)C3)C4)nc21 [Example 469, ((1s,3s)-3-Hydroxy-3-methylcyclobutyl)(7-((1-methyl-1H-pyrrolo[2,3-b]pyridin-6-yl)oxy)-2-azaspiro[3.5]nonan-2-yl)methanone]"
2,11 nM,"Cc1cc(OC2CCC3(CC2)CN(C(=O)[C@H]2C[C@@](C)(O)C2)C3)nc2c1ccn2C [Example 470, (7-((1,4-Dimethyl-1H-pyrrolo[2,3-b]pyridin-6-yl)oxy)-2-azaspiro[3.5]nonan-2-yl)((1s,3s)-3-hydroxy-3-methylcyclobutyl)methanone]"
3,2 nM,"Cc1cn(C)c2nc(OC3CCC4(CC3)CN(C(=O)[C@H]3C[C@@](C)(O)C3)C4)ccc12 [Example 471, (7-((1,3-Dimethyl-1H-pyrrolo[2,3-b]pyridin-6-yl)oxy)-2-azaspiro[3.5]nonan-2-yl)((1s,3s)-3-hydroxy-3-methylcyclobutyl)methanone]"
4,26 nM,"Cc1cc2ccc(OC3CCC4(CC3)CN(C(=O)[C@H]3C[C@@](C)(O)C3)C4)nc2n1C [Example 472, (7-((1,2-Dimethyl-1H-pyrrolo[2,3-b]pyridin-6-yl)oxy)-2-azaspiro[3.5]nonan-2-yl)((1s,3s)-3-hydroxy-3-methylcyclobutyl)methanone]"
5,5.5 nM,"Cn1cc(F)c2ccc(OC3CCC4(CC3)CN(C(=O)[C@H]3C[C@@](C)(O)C3)C4)nc21 [Example 474, (7-((3-Fluoro-1-methyl-1H-pyrrolo[2,3-b]pyridin-6-yl)oxy)-2-azaspiro[3.5]nonan-2-yl)((1s,3s)-3-hydroxy-3-methylcyclobutyl)methanone]"
6,4.6 nM,"CCn1cc(F)c2ccc(OC3CCC4(CC3)CN(C(=O)[C@H]3C[C@@](C)(O)C3)C4)nc21 [Example 475, (7-((1-Ethyl-3-fluoro-1H-pyrrolo[2,3-b]pyridin-6-yl)oxy)-2-azaspiro[3.5]nonan-2-yl)((1s,3s)-3-hydroxy-3-methylcyclobutyl)methanone]"
7,1.4 nM,"Cn1cc(C(F)(F)F)c2ccc(OC3CCC4(CC3)CN(C(=O)[C@H]3C[C@@](C)(O)C3)C4)nc21 [Example 476, ((1s,3s)-3-Hydroxy-3-methylcyclobutyl)(7-((1-methyl-3-(trifluoromethyl)-1H-pyrrolo[2,3-b]pyridin-6-yl)oxy)-2-azaspiro[3.5]nonan-2-yl)methanone]"
8,146 nM,"Cn1ncc2ccc(OC3CCC4(CC3)CN(C(=O)[C@H]3C[C@@](C)(O)C3)C4)nc21 [Example 477, ((1s,3s)-3-Hydroxy-3-methylcyclobutyl)(7-((1-methyl-1H-pyrazolo[3,4-b]pyridin-6-yl)oxy)-2-azaspiro[3.5]nonan-2-yl)methanone]"

# More lines, now with the values behind:
row,Structure (SMILES),IC50
1,"COc1ccc(Cl)c(OC2CCC3(CC2)CN(C(=O)[C@H]2C[C@@](C)(O)C2)C3)n1 [Example 462, (7-((3-Chloro-6-methoxypyridin-2-yl)oxy)-2-azaspiro[3.5]nonan-2-yl)((1s,3s)-3-hydroxy-3-methylcyclobutyl)methanone]",6.8 nM
2,"COc1cc(Cl)cnc1OC1CCC2(CC1)CN(C(=O)[C@H]1C[C@@](C)(O)C1)C2 [Example 463, (7-((5-Chloro-3-methoxypyridin-2-yl)oxy)-2-azaspiro[3.5]nonan-2-yl)((1s,3s)-3-hydroxy-3-methylcyclobutyl)methanone]",9.7 nM
3,"COc1ccnc(OC2CCC3(CC2)CN(C(=O)[C@H]2C[C@@](C)(O)C2)C3)c1Cl [Example 464, (7-((3-Chloro-4-methoxypyridin-2-yl)oxy)-2-azaspiro[3.5]nonan-2-yl)((1s,3s)-3-hydroxy-3-methylcyclobutyl)methanone]",81 nM
4,"Cc1cc(OC2CCC3(CC2)CN(C(=O)[C@H]2C[C@@](C)(O)C2)C3)nc(C)c1C(F)(F)F [Example 465, (7-((4,6-Dimethyl-5-(trifluoromethyl)pyridin-2-yl)oxy)-2-azaspiro[3.5]nonan-2-yl)((1s,3s)-3-hydroxy-3-methylcyclobutyl)methanone]",2.7 nM
5,"Cc1cc(C(F)(F)F)c(C)nc1OC1CCC2(CC1)CN(C(=O)[C@H]1C[C@@](C)(O)C1)C2 [Example 466, (7-((3,6-Dimethyl-5-(trifluoromethyl)pyridin-2-yl)oxy)-2-azaspiro[3.5]nonan-2-yl)((1s,3s)-3-hydroxy-3-methylcyclobutyl)methanone]",0.1 nM
6,"C[C@]1(O)C[C@@H](C(=O)N2CC3(CCC(Oc4ncc(C(F)(F)F)cn4)CC3)C2)C1 [Example 467, ((1s,3s)-3-Hydroxy-3-methylcyclobutyl)(7-((5-(trifluoromethyl)pyrimidin-2-yl)oxy)-2-azaspiro[3.5]nonan-2-yl)methanone]",858 nM
7,"C[C@]1(O)C[C@@H](C(=O)N2CC3(CCC(Oc4ccc5c(n4)CCC5)CC3)C2)C1 [Example 468, (7-((6,7-Dihydro-5H-cyclopenta[b]pyridin-2-yl)oxy)-2-azaspiro[3.5]nonan-2-yl)((1s,3s)-3-hydroxy-3-methylcyclobutyl)methanone]",29 nM
8,"Cc1cc2ccn(C)c2nc1OC1CCC2(CC1)CN(C(=O)[C@H]1C[C@@](C)(O)C1)C2 [Example 473, (7-((1,5-Dimethyl-1H-pyrrolo[2,3-b]pyridin-6-yl)oxy)-2-azaspiro[3.5]nonan-2-yl)((1s,3s)-3-hydroxy-3-methylcyclobutyl)methanone]",1.2 nM
9,"COc1cc(C)cc(C2CC3(CCN(C(=O)[C@H]4C[C@@](C)(O)C4)CC3)C2)c1 [Example 478, ((1s,3s)-3-Hydroxy-3-methylcyclobutyl)(2-(3-methoxy-5-methylphenyl)-7-azaspiro[3.5]nonan-7-yl)methanone]",203 nM
10,"Cc1cc(C(F)(F)F)ccc1OC1CC2(CCN(C(=O)[C@H]3C[C@@](C)(O)C3)CC2)C1 [Example 479, ((1s,3s)-3-Hydroxy-3-methylcyclobutyl)(2-(2-methyl-4-(trifluoromethyl)phenoxy)-7-azaspiro[3.5]nonan-7-yl)methanone]",3.1 nM
11,"Cc1cc(OC2CC3(CCN(C(=O)[C@H]4C[C@@](C)(O)C4)CC3)C2)ccc1C(F)(F)F [Example 480, ((1s,3s)-3-Hydroxy-3-methylcyclobutyl)(2-(3-methyl-4-(trifluoromethyl)phenoxy)-7-azaspiro[3.5]nonan-7-yl)methanone]",5.8 nM
12,"Cc1cc(C(F)(F)F)cnc1OC1CC2(CCN(C(=O)[C@H]3C[C@@](C)(O)C3)CC2)C1 [Example 481, ((1s,3s)-3-Hydroxy-3-methylcyclobutyl)(2-((3-methyl-5-(trifluoromethyl)pyridin-2-yl)oxy)-7-azaspiro[3.5]nonan-7-yl)methanone]",15 nM
13,"Cc1nc(OC2CC3(CCN(C(=O)[C@H]4C[C@@](C)(O)C4)CC3)C2)ccc1C(F)(F)F [Example 482, ((1s,3s)-3-Hydroxy-3-methylcyclobutyl)(2-((6-methyl-5-(trifluoromethyl)pyridin-2-yl)oxy)-7-azaspiro[3.5]nonan-7-yl)methanone]",61 nM
